# Assay results reported in the supplement of paper PMC10307832.
# Assays:
# Test in all cases: relative viability (nuclei count vs DMSO), 5 days (fraction); higher = more cells survive
# [1] = compound: C1CSC2=C(C(=O)N1)SC3=C2C=C(C=C3)O [kb NB 142-70] + COc1cccc2cc(-c3nc([C@H]4CC[C@H](C(=O)O)CC4)n4ncnc(N)c34)[nH]c12 [OSI-027] (partner 0.5 µM)
# How it was run: (§1)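 Five library-drug doses in √10 steps were combined with a fixed anchor-drug dose, or a single drug was given alone, by pin tool to lung cancer cell lines in 1536-well plates the day after seeding. Nuclei were stained and counted after 5 days. Relative viability is the nuclei count in treated wells over that in vehicle wells, taken as the median of duplicate plates.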
# [2] = compound: C1CSC2=C(C(=O)N1)SC3=C2C=C(C=C3)O [kb NB 142-70] + C[C@@H](Oc1cc(-c2cnn(C3CCNCC3)c2)cnc1N)c1c(Cl)ccc(F)c1Cl [Crizotinib] (partner 1 µM)
# How it was run: as §1
# [3] = compound: C1CSC2=C(C(=O)N1)SC3=C2C=C(C=C3)O [kb NB 142-70] + Cc1nc(Nc2ncc(C(=O)Nc3c(C)cccc3Cl)s2)cc(N2CCN(CCO)CC2)n1 [Dasatinib] (partner 0.075 µM)
# How it was run: as §1
# [4] = compound: NCC(=O)Nc1ccc(-n2nc(C(F)(F)F)cc2-c2ccc3c(ccc4ccccc43)c2)cc1 + CC(=O)Nc1cccc(-n2c(=O)n(C3CC3)c(=O)c3c(Nc4ccc(I)cc4F)n(C)c(=O)c(C)c32)c1 [Trametinib] (partner 0.02 µM)
# How it was run: as §1
# [5] = compound: NCC(=O)Nc1ccc(-n2nc(C(F)(F)F)cc2-c2ccc3c(ccc4ccccc43)c2)cc1 + COc1cc2c(Oc3ccc(NC(=O)C4(C(=O)Nc5ccc(F)cc5)CC4)cc3F)ccnc2cc1OCCCN1CCOCC1 [Foretinib] (partner 0.25 µM)
# How it was run: as §1
Cell Line,relative viability ([1]; first compound 0.1 µM),relative viability ([1]; first compound 1 µM),relative viability ([1]; first compound 3.162 µM),relative viability ([2]; first compound 0.1 µM),relative viability ([2]; first compound 1 µM),relative viability ([2]; first compound 3.162 µM),relative viability ([3]; first compound 0.1 µM),relative viability ([3]; first compound 1 µM),relative viability ([3]; first compound 3.162 µM),relative viability ([4]; first compound 0.02 µM),relative viability ([4]; first compound 0.06325 µM),relative viability ([4]; first compound 0.2 µM),relative viability ([4]; first compound 0.6325 µM),relative viability ([4]; first compound 2 µM),relative viability ([5]; first compound 0.02 µM),relative viability ([5]; first compound 0.06325 µM),relative viability ([5]; first compound 0.2 µM),relative viability ([5]; first compound 0.6325 µM),relative viability ([5]; first compound 2 µM)
ChaGo-K-1,0.631,0.543,0.488,1.1,1.16,1.13,0.509,0.559,0.543,0.832,0.903,0.882,0.83,0.842,0.866,0.956,0.847,0.937,0.77
NCI-H1650,0.612,0.755,0.483,0.833,1.01,1.08,0.348,0.382,0.253,0.403,0.54,0.648,0.769,0.642,1.42,1.25,–,1.43,1.19
NCI-H2009,0.678,0.68,0.395,1,1.12,0.652,0.321,0.284,0.155,0.265,0.35,0.316,0.275,0.301,1.27,1.19,1.38,1.14,1.25
LOU-NH91,0.699,0.695,0.651,0.75,0.732,0.644,0.486,0.508,0.556,0.847,0.832,0.812,0.803,0.795,0.994,0.959,0.965,0.929,1.01
NCI-H2405,0.652,0.615,0.546,0.796,0.885,0.717,0.205,0.208,0.224,0.5,0.721,0.67,0.635,0.734,1.12,1.07,1.13,1.03,1.11
LCLC-97TM1,0.635,0.407,0.237,0.382,0.331,0.201,0.787,0.95,0.882,0.21,0.215,0.213,0.198,0.189,0.87,0.999,0.924,0.945,0.96
NCI-H596,0.931,0.773,0.509,1.03,1.03,0.933,0.551,0.571,0.442,0.804,0.725,0.827,0.83,1.25,0.956,0.796,0.724,0.9,0.885
NCI-H727,0.716,0.583,0.67,0.752,1.06,0.592,0.427,0.354,0.272,0.411,0.372,0.351,0.346,0.394,0.912,0.92,1.21,1.07,1.04
H3255,0.606,0.603,0.554,0.97,0.776,0.958,0.297,0.404,0.405,0.642,0.579,0.592,0.629,0.674,0.823,1.04,0.858,1.11,0.89
SK-MES-1,0.653,0.676,0.27,1.01,1.02,0.72,0.422,0.49,0.337,0.56,0.555,0.612,0.511,0.593,0.955,0.896,0.995,0.959,1.06
NCI-H1437,0.908,0.968,0.921,1.01,0.997,0.946,0.485,0.459,0.433,0.519,0.579,0.497,0.467,0.683,1.26,1.31,1.25,1.28,1.22
LU99A,0.325,0.327,0.317,0.577,0.506,0.397,0.496,0.583,0.405,0.548,0.678,0.569,0.56,0.48,0.855,0.783,0.932,0.79,0.853
HCC-827,0.775,0.759,0.775,0.918,0.947,0.921,0.265,0.295,0.445,0.572,0.584,0.58,0.553,0.521,1.1,1.09,0.98,0.991,1.08
LK-2,0.19,0.163,0.163,0.225,0.226,0.204,0.231,0.231,0.229,0.659,0.751,0.703,0.826,0.686,0.93,1.35,1.35,1.37,1.39
HCC-366,1.04,0.894,0.742,0.533,0.633,0.463,0.634,0.498,0.378,0.361,0.408,0.467,0.354,0.271,0.918,0.911,0.984,0.924,0.992
BEN,0.306,0.301,0.202,0.791,0.906,0.69,0.307,0.303,0.209,0.861,1.15,1.05,0.938,1.11,0.635,0.602,0.561,0.681,0.657
NCI-H23,0.632,0.572,0.412,0.502,0.522,0.253,0.792,0.713,0.287,0.313,0.456,0.448,0.422,0.352,1.05,0.998,1,0.975,0.987
